Laboratory results reported in publication PMC12249541, “Novel Derivatives of 3-Amino-4-hydroxy-benzenesulfonamide: Synthesis, Binding to Carbonic Anhydrases, and Activity in Cancer Cell 2D and 3D Cultures” (International Journal of Molecular Sciences, 2025).
Entries after “also recorded” stand apart in the source; their conditions may differ. Like-named read-outs stand apart in the source and are kept apart here. Each block holds one compound with its values, some of them ahead of it.

Columns and labels:
human glioblastoma U-87 = experiment: MTT cell viability assay, U-87; type: cell-based; settings: 72 h, read-out: EC50, U-87
[1] = system: U-87, MDA-MB-231, PPC-1 cell lines; experiment: MTT cell viability assay, statements over several cell lines; type: cell-based, human; settings: for EC50 / viability at 100 µM: Homo sapiens; for EC50: read-out: EC50 values, range over different cell lines
[2] = system: prostate adenocarcinoma PPC-1; experiment: MTT cell viability assay, PPC-1; type: cell-based; settings: Homo sapiens, read-out: EC50, PPC-1
[3] = system: human foreskin fibroblasts (HFs); experiment: MTT cell viability assay, fibroblasts; type: cell-based; settings: Fibroblast, 72 h, read-out: EC50, HF
[4] = system: triple-negative breast cancer MDA-MB-231; experiment: MTT cell viability assay, MDA-MB-231; type: cell-based, human; settings: read-out: EC50, MDA-MB-231
CAI = CAI (Homo sapiens, UniProt P00915); experiment: Fluorescent thermal shift assay (FTSA), CAI; type: binding
CAVA = CAVA (Homo sapiens, UniProt P35218); experiment: Fluorescent thermal shift assay (FTSA), CAVA; type: binding; settings: compared with compound 10
CAIX = CAIX (Homo sapiens, UniProt Q16790); experiment: Fluorescent thermal shift assay (FTSA), CAIX; type: binding; settings: compared with compound 10
[5] = system: recombinant human carbonic anhydrases (CAs); experiment: FTSA, statements over several CA isoenzymes; type: binding; settings: up to 200 µM
MDA-MB-231 spheroids = experiment: 3D culture (cancer spheroids), MDA-MB-231; type: cell-based, human; settings: 10 µM
U-87 spheroids = experiment: 3D culture (cancer spheroids), U-87; type: cell-based, human; settings: 10 µM
PPC-1 spheroids = experiment: 3D culture (cancer spheroids), PPC-1; type: cell-based, human; settings: 10 µM
CAII = CAII (Homo sapiens, UniProt P00918); experiment: Fluorescent thermal shift assay (FTSA), CAII; type: binding; settings: compared with compound 24
[6] = 100 μM, 72 h, MTT, at least one of the tested cell lines
[7] = Homo sapiens, MDA-MB-231, MTT, 72 h
[8] = MTT at the end of the experiment
[9] = cancer cells and fibroblasts 1:1, vs control

CAI, sequence (P00915 whole entry): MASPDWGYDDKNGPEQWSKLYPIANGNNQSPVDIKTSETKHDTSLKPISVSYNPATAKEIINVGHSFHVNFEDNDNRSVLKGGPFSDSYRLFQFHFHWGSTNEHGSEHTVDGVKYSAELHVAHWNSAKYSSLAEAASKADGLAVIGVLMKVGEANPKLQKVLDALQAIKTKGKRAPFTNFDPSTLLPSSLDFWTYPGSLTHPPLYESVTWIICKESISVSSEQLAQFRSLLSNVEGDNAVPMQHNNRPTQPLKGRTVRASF
CAVA, sequence (P35218 39-305): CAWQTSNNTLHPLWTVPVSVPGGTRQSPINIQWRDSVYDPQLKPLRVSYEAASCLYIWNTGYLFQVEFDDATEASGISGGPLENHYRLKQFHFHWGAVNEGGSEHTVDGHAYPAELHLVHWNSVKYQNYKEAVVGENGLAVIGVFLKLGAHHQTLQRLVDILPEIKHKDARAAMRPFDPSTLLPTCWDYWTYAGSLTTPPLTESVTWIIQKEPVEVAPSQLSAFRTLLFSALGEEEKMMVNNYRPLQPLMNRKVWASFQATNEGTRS

SMILES: NS(=O)(=O)c1ccc(O)c(N=Cc2ccc([N+](=O)[O-])s2)c1 [Compound 9, 4-Hydroxy-3-(((5-nitrothiophen-2-yl)methylene)amino)benzenesulfonamide]
EC50 (human glioblastoma U-87): 23.3 ± 2.9 µM
EC50 ([1]; 72 h): 13 to 23.3 µM
viability at 100 µM [1, 6]: < 20%
EC50 ([2]; PPC-1, 72 h): 13 ± 3.5 µM
EC50 [3]: 13.8 ± 5.2 µM
EC50 ([4]; Homo sapiens, MDA-MB-231, 72 h): 14 ± 3.2 µM

SMILES: NS(=O)(=O)c1ccc(O)c(NCC(=NN=C(CNc2cc(S(N)(=O)=O)ccc2O)c2ccccc2)c2ccccc2)c1 [Compound 18, 3,3′-((Hydrazine-1,2-diylidenebis(2-phenylethan-1-yl-2-ylidene))bis(azanediyl))bis(4-hydroxybenzenesulfonamide)]
EC50 (human glioblastoma U-87; MTT): 105 ± 6 µM
viability at 100 µM [1, 6]: < 20%
EC50 ([2]; PPC-1, MTT, 72 h): 108 ± 17.7 µM
EC50 ([3]; MTT): 134 ± 11.1 µM
EC50 [4, 7]: 127 ± 20.8 µM

SMILES: CCOc1ccc(S(=O)(=O)N(CC)CC)cc1-n1cc(-c2ccccc2)n(CC)c1=O [Compound 21, 4-Ethoxy-N,N-diethyl-3-(3-ethyl-2-oxo-4-phenyl-2,3-dihydro-1H-imidazol-1-yl)benzenesulfonamide]
EC50 (human glioblastoma U-87; MTT): 148 ± 10.4 µM
binding to CA isoenzymes (in words) [5]: completely lost its ability to bind; also recorded: abolished the ability; also recorded: did not bind any of the tested CAs
viability at 100 µM [1, 6]: < 20%
EC50 ([1]; MTT, 72 h): 43.7 to 148 µM
selectivity for cancer cells over fibroblasts ([1]; from EC50 values, cancer cell lines vs HF): 1.5–6 times
viability of cells in spheroids, MDA-MB-231 (MDA-MB-231 spheroids; [8]): reduced the viability
spheroid growth / size, MDA-MB-231 (MDA-MB-231 spheroids; [9]): reduced the growth
EC50 ([2]; PPC-1, MTT, 72 h): 43.7 ± 15 µM
EC50 ([3]; MTT): 259 ± 8.4 µM
viability of cells in spheroids, U-87 (U-87 spheroids; [8]): reduced the viability
spheroid growth / size, U-87 (U-87 spheroids; [9]): reduced the growth
EC50 [4, 7]: 57.3 ± 15 µM
viability of cells in spheroids, PPC-1 (PPC-1 spheroids; [8]): reduced the viability
spheroid growth / size, PPC-1 (PPC-1 spheroids; [9]): no statistically significant effect

SMILES: CCOc1ccc(S(=O)(=O)N(CC)CC)cc1-n1cc(-c2ccccc2)nc1SCC [Compound 23, 4-Ethoxy-N,N-diethyl-3-(2-(ethylthio)-4-phenyl-1H-imidazol-1-yl)benzenesulfonamide]
binding to CA isoenzymes (in words) [5]: lost its affinity; also recorded: abolished the ability

SMILES: CC(=O)Nc1cc(S(=O)(=O)NC(C)=O)ccc1O [Compound 27, N -((3-Acetamido-4-hydroxyphenyl)sulfonyl)acetamide]
binding to CA isoenzymes (in words) [5]: did not interact; also recorded: abolished the ability

Second part, led by results:

EC50 (human glioblastoma U-87; MTT): 137 ± 15.4 µM
melting temperature (Tm) of CAI with increasing compound concentration (CAI; 0–200 µM of compound, FTSA): 56 to 66 °C
EC50 ([2]; PPC-1, MTT, 72 h): 137 ± 15.5 µM
EC50 [4, 7]: 148 ± 22.5 µM
SMILES: NS(=O)(=O)c1ccc(O)c(NCC(=O)c2ccc(Cl)cc2)c1 [Compound 12, 4-Hydroxy-3-((2-(4-chlorophenyl)-2-oxoethyl)amino)benzenesulfonamide]
viability at 100 µM [1, 6]: < 20%
EC50 ([3]; MTT): 166 ± 7 µM

fold increase in affinity, CAVA (CAVA): 9 ×
fold increase in affinity, CAI (CAI; compared with compound 10): 60 ×
fold increase in affinity, CAIX (CAIX): 4.5 ×
SMILES: NS(=O)(=O)c1ccc(O)c(NCC(=O)c2cccc3ccccc23)c1 [Compound 14, 4-Hydroxy-3-((2-(naphthalen-1-yl)-2-oxoethyl)amino)benzenesulfonamide]
cell viability [1, 6]: did not show high cytotoxicity

fold increase in affinity, CAII (CAII): ~40 ×
SMILES: COC(=O)CCNc1cc(S(N)(=O)=O)ccc1O [Compound 25, Methyl 3-((2-hydroxy-5-sulfamoylphenyl)amino)propanoate]

EC50 ([4]; MTT, 72 h): 240 ± 18 µM
SMILES: NS(=O)(=O)c1ccc(NC(=O)Nc2ccc(F)cc2)cc1 [Compound U-104, reference compound]
